In patent publication US6767907B2, “4-aryl-1-(indanmethyl dihydrobenzofuranmethyl or dihydrobenzothiophenemethyl) piperidines tetrahydropyridines or piperazines” (H. Lundbeck A/S, priority 1994, dated 2004) one finds melting point, IC50 and inhibition data, which are given here for 24 compounds.

Series [1] concerns the target T1, 5-HT2A receptors (Rattus norvegicus, UniProt P14842).
T1 construct: 5-HT2A receptors in membranes from rat is determined in vitro; from tissue; host or cells: rat cortex membranes
The series can be described thus: Inhibition of 3H-Ketanserin binding to 5-HT2 receptors in rat cortex in vitro. On the procedure:
Inhibition of ^3H-Ketanserin Binding to 5-HT2 Receptors in Rat Cortex in vitro.
By this method the inhibition by drugs of the binding of ^3H-Ketanserin (0.5 nM) to 5-HT2A receptors in membranes from rat is determined in vitro .

Series [2] addresses T2, 5-HT1A receptors (Rattus norvegicus, UniProt P19327).
T2 construct: 5-HT1A receptors in membranes from rat brain minus cerebellum; from tissue; host or cells: rat brain minus cerebellum, membranes
T2 sequence (P19327 1-422): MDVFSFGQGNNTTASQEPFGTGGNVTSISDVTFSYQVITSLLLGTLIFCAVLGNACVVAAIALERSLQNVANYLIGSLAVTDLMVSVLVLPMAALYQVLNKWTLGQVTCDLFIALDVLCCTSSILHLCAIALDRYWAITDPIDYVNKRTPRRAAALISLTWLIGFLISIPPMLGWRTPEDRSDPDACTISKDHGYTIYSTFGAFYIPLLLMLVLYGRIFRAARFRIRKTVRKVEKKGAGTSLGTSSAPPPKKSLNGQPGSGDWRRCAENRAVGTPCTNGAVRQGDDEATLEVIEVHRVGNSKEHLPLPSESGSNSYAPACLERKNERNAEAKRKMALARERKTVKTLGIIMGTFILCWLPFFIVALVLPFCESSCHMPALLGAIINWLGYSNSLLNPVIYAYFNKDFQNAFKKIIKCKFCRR
The series can be described thus: Inhibition of 3H-8-OH-DPAT binding to serotonin 5-HT1A receptors in rat brain in vitro. The following applies: for inhibition at 0.1 µM: read-out: 3H 8-OH DPAT (5-HT1A) binding, % inhibition of binding at 100 nM, at 100 nM, rat brain membranes. On the procedure:
By this method the inhibition by drugs of the binding of the 5-HT1A agonist ^3H-8-OH-DPAT (1 nM) to 5-HT1A receptors in membranes from rat brain minus cerebellum is determined in vitro . Accordingly, this is a test for affinity for the 5-HT1A receptor. The test is performed as described by Hyttel et al., Drug. Dev. Res., 1988, 15, 389-404.

Where [3] appears, read: 3H-Ketanserin 0.5 nM, membranes from rat cortex, read-out: 3H Ketanserin (5-HT2A) binding, IC50.
The mark [4] stands for this setting: 3H-8-OH-DPAT 1 nM, membranes from rat brain minus cerebellum, read-out: 3H 8-OH DPAT (5-HT1A) binding, IC50.

Where two headings read alike, the source gives them in different places.

T1 sequence (P14842 whole entry): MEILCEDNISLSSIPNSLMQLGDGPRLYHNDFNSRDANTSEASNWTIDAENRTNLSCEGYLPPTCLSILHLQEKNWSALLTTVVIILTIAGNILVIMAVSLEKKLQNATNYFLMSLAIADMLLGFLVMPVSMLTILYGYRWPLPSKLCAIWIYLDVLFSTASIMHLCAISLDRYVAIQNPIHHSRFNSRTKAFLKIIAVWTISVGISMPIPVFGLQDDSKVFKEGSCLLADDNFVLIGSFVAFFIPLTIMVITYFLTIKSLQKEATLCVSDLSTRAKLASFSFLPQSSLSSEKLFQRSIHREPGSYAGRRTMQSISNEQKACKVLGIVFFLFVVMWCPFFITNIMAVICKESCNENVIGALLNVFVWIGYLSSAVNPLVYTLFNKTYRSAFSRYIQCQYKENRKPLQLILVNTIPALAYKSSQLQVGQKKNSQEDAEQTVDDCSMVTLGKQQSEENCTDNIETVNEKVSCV

For orientation: melting point means the temperature, or range, at which the solid turns liquid. As a reminder, the IC50 is the concentration that gives 50% inhibition. Regarding `O=C(Nc1ccc(F)cc1)Nc1ccc2c(c1)C(CN1CCC(c3ccc(F)cc3)CC1)CC2` (stereo not shown) [Compound 5b, 1-[6-(4-Fluorophenyl)aminocarbonylaminoindan-1-ylmethyl]-4-(4-fluorophenyl)-piperidine], the melting point was in the range of 235 to 238 °C. The IC50 in series [1] (setting [3]) is 37 nM. Besides, in series [2] (setting [4]), the IC50 is over 100000 nM.

Turning to `CC(=O)Nc1ccc2c(c1)C(CN1CC=C(c3ccc(F)cc3)CC1)CC2` (stereo not shown) [Compound 4h, 1-(6-Acetylaminoindan-1-ylmethyl)-4-(4-fluorophenyl)-1,2,3,6-tetrahydropyridine], the melting point is 156 to 161 °C. The IC50 in series [1] (setting [3]) is 2.8 nM. Also, in series [2] (setting [4]), the IC50 amounted to 11 nM.

In the case of `CC(=O)Nc1ccc2c(c1)C(CN1CCN(c3ccc(Cl)c(Cl)c3)CC1)CC2` (stereo not shown) [Compound 4o, 1-(6-Acetylaminoindan-1-ylmethyl)-4-(3,4-dichlorophenyl)piperazine], the melting point was 160 to 163 °C. In addition, in series [1] (setting [3]), the IC50 was 51 nM. The IC50 in series [2] (setting [4]) is 11 nM.

For `CS(=O)(=O)Nc1ccc2c(c1)C(CN1CCC(c3ccc(F)cc3)CC1)CC2` (stereo not shown) [Compound 4i, 4-(4-Fluorophenyl)-1-(6-methansulfonylaminoindan-1-ylmethyl)piperidine], the melting point lay in the range of 152 to 155 °C. Moreover, the IC50 in series [1] (setting [3]) was found to be 2.1 nM. In series [2] (setting [4]), the IC50 came to 500 nM.

As to `CN(C)C(=S)Nc1ccc2c(c1)C(CN1CCC(c3ccc(F)cc3)CC1)CC2` (stereo not shown) [Compound 6b, 1-(6-Dimethylaminothiocarbonylaminoindan-1-ylmethyl)-4-(4-fluorophenyl)piperidine], the melting point lay within 175 to 180 °C. In series [1] (setting [3]), the IC50 was determined as 6.7 nM. Further, in series [2] (setting [4]), the IC50 is 1200 nM.

For orientation: inhibition means how much of the control response was suppressed. `CC(=O)Nc1ccc2c(c1)C(CN1CC=C(c3cn(C)c4cc(Cl)ccc34)CC1)CC2` (stereo not shown) [Compound 15a, 3-[1-(6-Acetylaminoindan-1-ylmethyl)-1,2,3,6-tetrahydropyridin-4-yl]-6-chloro-1-methyl-1H-indole] came in with a melting point of 189 to 193 °C. For the same compound, the inhibition at 0.1 µM in series [1] (read-out: 3H Ketanserin (5-HT2A) binding, % inhibition of binding at 100 nM, at 100 nM, 3H-Ketanserin 0.5 nM, rat cortex membranes) was 25%. Further, in series [2] (setting [4]), the IC50 came to 91 nM.

Regarding `O=C(Nc1ccc2c(c1)C(CN1CCC(c3ccc(F)cc3)CC1)CC2)C1CCCC1` (stereo not shown) [Compound 4k, 1-(6-Cyclopentylcarbonylaminoindan-1-ylmethyl)-4-(4-fluorophenyl)piperidine], the melting point fell in the range of 177 to 178 °C. Further, the IC50 in series [1] (setting [3]) was determined as 30 nM. In addition, the IC50 in series [2] (setting [4]) amounted to 240 nM.

`CC(=O)Nc1ccc2c(c1)C(CN1CCN(c3ccc(Cl)cc3)CC1)CC2` (stereo not shown) [Compound 4d, 1-(6-Acetylaminoindan-1-ylmethyl)-4-(4-chlorophenyl)piperazine] displayed a melting point of 191 to 194 °C. Also, in series [1] (setting [3]), the IC50 amounted to 5 nM. In series [2] (setting [4]), the IC50 is 12 nM.

For `Nc1ccc2c(c1)C(CN1CCN(c3ccc(Cl)c(Cl)c3)CC1)CC2` (stereo not shown) [Compound 2h, 1-(6-Aminoindan-1-ylmethyl)-4-(3,4-dichlorophenyl)piperazine], the melting point is 156 to 158 °C. Moreover, the half-inhibitory concentration (IC50) in series [1] (setting [3]) turned out to be 4.1 nM. For the same compound, the inhibition at 0.1 µM in series [2] (3H-8-OH-DPAT 1 nM) is 19%.

On to `CC(=O)Nc1ccc2c(c1)C(CN1CCN(c3ccc(F)cc3)CC1)CC2` (stereo not shown) [Compound 4b, 1-(6-Acetylaminoindan-1-ylmethyl)-4-(4-fluorophenyl)piperazine], for which the melting point was in the range of 179 to 187 °C. Further, the IC50 in series [1] (setting [3]) was determined as 2.9 nM. In series [2] (setting [4]), the IC50 was found to be 21 nM.

For the compound `CNC(=S)Nc1ccc2c(c1)C(CN1CCC(c3ccc(F)cc3)CC1)CC2` (stereo not shown) [Compound 5c, 4-(4-Fluorophenyl)-1-(6-methylaminothiocarbonylaminoindan-1-ylmethyl)piperidine], the figures for the 50% inhibitory concentration (IC50) in series [1] (setting [3]) and in series [2] (setting [4]) were 3.9 nM and over 1000 nM, respectively.

Regarding `CC(=O)Nc1ccc2c(c1)C(CN1CC=C(c3c[nH]c4ccc(Cl)cc34)CC1)CS2` (stereo not shown) [Compound 11b, 3-[1-(5-Acetylamino-2,3-dihydrobenzothiophen-3-ylmethyl)-1,2,3,6-tetrahydropyridin-4-yl]-5-chloro-1H-indole], the IC50 in series [1] (setting [3]) was 44 nM; in series [2] (setting [4]), 21 nM.

Regarding `CC(=O)Nc1ccc2c(c1)C(CN1CCN(c3ccccc3Cl)CC1)CC2` (stereo not shown) [Compound 4f, 1-(6-Acetylaminoindan-1-ylmethyl)-4-(2-chlorophenyl)piperazine], the IC50 in series [1] (setting [3]) was 65 nM; in series [2] (setting [4]), 84 nM.

As for `CS(=O)(=O)Nc1ccc2c(c1)C(CN1CC=C(c3ccc(Cl)cc3)CC1)CC2` (stereo not shown) [Compound 4m, 4-(4-Chlorophenyl)-1-(6-methansulphonylaminoindan-1-ylmethyl)-1,2,3,6-tetrahydropyperidine], the IC50 in series [1] came out at 2.7 nM; in series [2] (setting [4]), 120 nM.

Compound `CC(=O)Nc1ccc2c(c1)C(CN1CCC(c3ccc(C)cc3)CC1)CC2` (stereo not shown) [Compound 4n, 1-(6-Acetylaminoindan-1-ylmethyl)-4-(4-methylphenyl)piperidine] yielded a melting point of 173 to 175 °C. Further, the IC50 in series [1] (setting [3]) came to 3.9 nM. The IC50 in series [2] (setting [4]) was 27 nM.

As to `CCOC(=O)Nc1ccc2c(c1)C(CN1CCC(c3ccc(F)cc3)CC1)CC2` (stereo not shown) [Compound 4l, 1-(6-Ethyloxycarbonylaminoindan-1-ylmethyl)-4-(4-fluorophenyl)piperidine], the IC50 in series [1] (setting [3]) is 55 nM. For the same compound, the inhibition at 0.1 µM in series [2] (3H-8-OH-DPAT 1 nM) is 26%.

`CC(=O)Nc1ccc2c(c1)C(CN1CCN(c3cccc(Cl)c3)CC1)CC2` (stereo not shown) [Compound 4e, 1-(6-Acetylaminoindan-1-ylmethyl)-4-(3-chlorophenyl)piperazine] displayed a melting point of 176 to 178 °C. For the same compound, in series [1] (setting [3]), the IC50 turned out to be 5 nM. Besides, the IC50 in series [2] (setting [4]) worked out at 38 nM.

As to `O=C(Nc1ccc2c(c1)C(CN1CCC(c3ccc(F)cc3)CC1)CC2)N1CCCC1` (stereo not shown) [Compound 6c, 4-(4-fluorophenyl)-1-[6-(1-pyrrolidinyl)carbonylaminoindan-1-ylmethyl]piperidine], the melting point was 190 to 193 °C. For the same compound, the IC50 in series [1] (setting [3]) was 9.9 nM. Also, the IC50 in series [2] (setting [4]) is 8200 nM.

As to `CC(=O)Nc1ccc2c(c1)C(CN1CCC(c3ccc(F)cc3)CC1)CC2` (stereo not shown) [Compound 4a, 1-(6-Acetylaminoindan-1-ylmethyl)-4-(4-fluorophenyl)piperidine], the melting point is 159 to 162 °C. Besides, in series [1] (setting [3]), the IC50 was 4 nM. In series [2] (setting [4]), the IC50 came out at 11 nM.

Take `CC(=O)Nc1ccc2c(c1)C(CN1CCC(c3ccc(F)cc3)CC1)CC2` (single isomer, unassigned; (+)) [Compound 14a, (+)-1-(6-Acetylaminoindan-1-ylmethyl)-4-(4-fluorophenyl)piperidine]: the IC50 came out at 16 nM in series [1] (setting [3]) and 120 nM in series [2] (setting [4]).

For `CC(=O)Nc1ccc2c(c1)C(CN1CC=C(c3c[nH]c4cc(Cl)ccc34)CC1)CC2` (stereo not shown) [Compound 11e, 3-[1-(6-Acetylaminoindan-1-ylmethyl)-1,2,3,6-tetrahydropyridin-4-yl]-6-chloro-1H-indole], the IC50 in series [1] (setting [3]) was found to be 130 nM; in series [2] it was 27 nM.

`O=C(Nc1ccc2c(c1)C(CN1CCC(c3ccc(F)cc3)CC1)CC2)C1CC1` (stereo not shown) [Compound 4j, 1-(6-Cyclopropylcarbonylaminoindan-1-ylmethyl)-4-(4-fluorophenyl)piperidine] came in with a melting point of 134 to 140 °C. Also, in series [1] (setting [3]), the IC50 was determined as 15 nM. Further, the IC50 in series [2] (setting [4]) turned out to be 45 nM.

`CNC(=O)Nc1ccc2c(c1)C(CN1CCC(c3ccc(F)cc3)CC1)CC2` (stereo not shown) [Compound 5a, 4-(4-Fluorophenyl)-1-(6-methylaminocarbonylaminoindan-1-ylmethyl)piperidine]: the IC50 amounted to 5.1 nM in series [1] (setting [3]) and 35 nM in series [2] (setting [4]).

`CC(=O)Nc1ccc2c(c1)C(CN1CCC(c3ccc(F)cc3)CC1)CS2` (stereo not shown) [Compound 4c, 1-(5-Acetylamino-2,3-dihydrobenzothiophen-3-ylmethyl)-4-(4-fluorophenyl)piperidine] yielded a melting point of 140 to 142 °C. Also, in series [1] (setting [3]), the IC50 stood at 2.3 nM. Besides, the IC50 in series [2] (setting [4]) is 28 nM.
